In brackets after ≈: the same amount, converted by molar mass.

One data set deals with Artemia. Description: Toxicity in brine shrimp. In kind it is organism-based. Conditions: in vivo.
The nature of data set [1]: Cytotoxicity against mouse 9PS cells. In kind it is functional.
The subject of another data set is A549. Put plainly: Cytotoxicity against human A549 cells. In kind it is functional.
The next data set has as its system MCF7. Description: Cytotoxicity against human MCF7 cells. Type of data set: functional.
A further data set has as its system HT-29. Put plainly: Cytotoxicity against human HT-29 cells. Type of data set: functional.
Data set [2] concerns Agrobacterium tumefaciens. Description: Antitumor activity against Agrobacterium tumefaciens-induced crown gall tumors in potato by disk test. In kind it is functional.
A short description of data set [3]: Cytotoxicity against human 9KB cells. Type of data set: functional. To be noted: read-out: ED50 (the source's name).
The nature of data set [4]: In vivo antitumor activity against mouse 3PS cells at 0.25 mg/kg, relative to control. Type of data set: functional.

For the compound `CC[C@H]1CN2CCc3cc(OC)c(OC)cc3[C@@H]2C[C@@H]1CC1=NCCc2cc(O)c(OC)cc21` [PSYCHOTRINE], the LC50 with Artemia was above 1000 ppm. Moreover, the EC50 in data set [1] (Mus musculus, read-out: ED50 (the source's name)) is 1 µg/mL (≈ 2.15 µM); with A549 (Homo sapiens, A549, read-out: ED50 (the source's name)), above 10 µg/mL; with MCF7 (Homo sapiens, MCF7, read-out: ED50 (the source's name)), above 10 µg/mL; in the data set on HT-29 (Homo sapiens, HT-29, read-out: ED50 (the source's name)), above 10 µg/mL.
In the data set on Artemia, `CC[C@H]1CN2CCc3cc(OC)c(OC)cc3[C@@H]2C[C@@H]1C[C@H]1NCCc2c1[nH]c1ccc(O)cc21` [TUBULOSINE] displayed an LC50 of 0.02 ppm. Moreover, the “inhibition (INH)” value in data set [2] came out at 81%. The ED50 is on record as 3.8 ×10⁻⁴ ug/ml in data set [1], below 1 ×10⁻⁵ ug/ml with A549, below 1 ×10⁻⁵ ug/ml with MCF7 and below 1 ×10⁻⁵ ug/ml with HT-29. Besides, in data set [3], the EC50 was 0.01 µg/mL (≈ 0.021 µM). For the same compound, the T/C in data set [4] was 186%.

The term LC50 denotes the concentration lethal to half of the exposed cells or organisms. Lower therefore signals a more lethal substance. In general, T/C refers to the result in the treated group divided by that in the control group, in per cent.

Values taken from ChEMBL document CHEMBL1158920, “Tubulosine: an antitumor constituent of Pogonopus speciosus” (J Nat Prod, 1990).
